Results as given in patent US4304715A, “Enkephalin analogues” (priority 1979, dated 1981).

Columns and labels:
rat brain membranes = experiment: Radio receptor assay (R.R.A.), an opiate binding assay: displacement of tritiated naloxone from rat brain membranes; details: based on concentration required to displace 50% of (3H)naloxone (1nM) from rat brain membranes; pH 7.4, 15 minutes, bacitracin; Met Enkephalin = 100%
mouse vas deferens = details: inhibition of electrically induced contractions, Met Enkephalin = 100%
Protocol: (ii) M.V.D. stands for mouse vas deferens
were performed as described in the literature

## CSCC[C@H](NC(=O)[C@H](Cc1ccccc1)NC(=O)CNC(=O)CCCC(N)Cc1ccc(O)cc1)C(N)=O (stereo partly drawn) [Analogue H211, 5-Amino-6-(4'-hydroxyphenyl)-hexanoyl-glycyl-L-phenylalanyl-L-methionine amide]
Rat brain membranes
  Activity Relative to Met Enkephalin R.R.A.: 9%
Mouse vas deferens
  Activity Relative to Met Enkephalin M.V.D.: 0.9%
